Test results reported in patent US11702429B2, “mTORC modulators and uses thereof” (Aeovian Pharmaceuticals, Inc., priority 2019, dated 2023).
Read-outs that look alike come from different tables or passages of the source.

Assays:
mTORC2 = target: T1, mTORC2 (Homo sapiens, UniProt P42345+P62942); assay: Inhibition assay for mTORC2: phosphorylation of pAkt at Ser473, AlphaLISA in PC3 cells; type: cell-based; details: for IC50: read-out: pIC50 mTORC2 (converted)
T1 construct: endogenous in cells; host or cells: PC3 cells (human prostate adenocarcinoma)
Procedure: (§1) The IC50s of the inhibition of mTORC1 and mTORC2 were determined in vitro by determining the phosphorylation of pS6K at position Thr389 (mTORC1 inhibition) and pAkt at Ser473 (mTORC2 inhibition). In vitro studies were performed with AlphaLISA® technology using PC3 cells (Prostate Adenocarcinoma; Human (Homo sapiens)). The cells were seeded in 96 well plates and were treated for 24 hours with the different compounds. […] All analysis were performed using GraphPad Prism 7.0 (GraphPad Software, San Diego, USA).

mTORC1 = target: T2, mTORC1 (Homo sapiens, UniProt P42345+P62942); assay: Inhibition assay for mTORC1: phosphorylation of pS6K at Thr389, AlphaLISA in PC3 cells; type: cell-based; details: for IC50: read-out: pIC50 mTORC1 (converted)
T2 construct: endogenous in cells; host or cells: PC3 cells (human prostate adenocarcinoma)
Procedure: as §1

[1] = PC3 cells, treated 24 hours, pAkt Ser473, AlphaLISA, C16 diastereomer mixtures not separated
[2] = PC3 cells, treated 24 hours, pS6K Thr389, AlphaLISA, C16 diastereomer mixtures not separated

T1 sequence (P62942 2-108 limits assumed, other chains not shown): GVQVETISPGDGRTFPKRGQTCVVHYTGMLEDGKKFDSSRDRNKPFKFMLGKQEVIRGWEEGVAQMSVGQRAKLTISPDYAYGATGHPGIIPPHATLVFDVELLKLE

Compound | IC50 (mTORC2) [nM] | IC50 (mTORC1) [nM] | also measured
COC1CC2CCC(C)C(O)(O2)C(=O)C(=O)N2CCCCC2C(=O)OC(C(C)CC2CCC(OCCCN3CCCC(O)C3)C(OC)C2)CC(=O)C(C)C=C(C)C(O)C(OC)C(=O)C(C)CC(C)C=CC=CC=C1C (stereo not shown) [Compound 340] | < 1000 | < 0.316 | 
COC1C[C@@H]2CC[C@@H](C)[C@@](O)(O2)C(=O)C(=O)N2CCCCC2C(=O)O[C@H]([C@H](C)C[C@@H]2CC[C@@H](OCCN3CCC(O)CC3)[C@H](OC)C2)CC(=O)[C@H](C)/C=C(\C)[C@@H](O)[C@@H](OC)C(=O)[C@H](C)C[C@H](C)/C=C/C=C/C=C/1C (stereo partly shown) [Compound 353] | < 1000 | < 0.316 | 
CO[C@@H]1C[C@H](C[C@@H](C)[C@@H]2CC(=O)[C@H](C)/C=C(\C)[C@@H](O)[C@@H](OC)C(=O)[C@H](C)C[C@H](C)/C=C/C=C/C=C(\C)C(c3cc(C)cs3)C[C@@H]3CC[C@@H](C)[C@@](O)(O3)C(=O)C(=O)N3CCCCC3C(=O)O2)CC[C@H]1O (stereo partly shown) [Compound 203] | 1000 to 10000 | > 3.16 | 
CO[C@@H]1C[C@H](C[C@@H](C)[C@@H]2CC(=O)[C@H](C)/C=C(\C)[C@@H](O)[C@@H](OC)C(=O)[C@H](C)C[C@H](C)/C=C/C=C/C=C(\C)C(OC[C@H](O)c3ccccc3)C[C@@H]3CC[C@@H](C)[C@@](O)(O3)C(=O)C(=O)N3CCCCC3C(=O)O2)CC[C@H]1OCCO (stereo partly shown) [Compound 88] |  |  | pIC50 mTORC2 (mTORC2; [1]): B (5 to 6 as B); pIC50 mTORC1 (mTORC1; [2]): A (pIC50 for mTORC1 of >9.5 as A)
COC1C[C@@H]2CC[C@@H](C)[C@@](O)(O2)C(=O)C(=O)N2CCCCC2C(=O)O[C@H]([C@H](C)C[C@@H]2CC[C@@H](OC(=O)NCCOCCOCCOCCOCCO)[C@H](OC)C2)CC(=O)[C@H](C)/C=C(\C)[C@@H](O)[C@@H](OC)C(=O)[C@H](C)C[C@H](C)/C=C/C=C/C=C/1C (stereo partly shown) [Compound 347] | < 1000 | < 0.316 | 
COC1C[C@@H]2CC[C@@H](C)[C@@](O)(O2)C(=O)C(=O)N2CCCCC2C(=O)O[C@H]([C@H](C)C[C@@H]2CC[C@@H](OCCOCCOCCO)[C@H](OC)C2)CC(=O)[C@H](C)/C=C(\C)[C@@H](O)[C@@H](OC)C(=O)[C@H](C)C[C@H](C)/C=C/C=C/C=C/1C (stereo partly shown) [Compound 317] | < 1000 | < 0.316 | 
COC1C[C@@H]2CC[C@@H](C)[C@@](O)(O2)C(=O)C(=O)N2CCCCC2C(=O)O[C@H]([C@H](C)C[C@@H]2CC[C@@H](OCCN3CCN(C)CC3)[C@H](OC)C2)CC(=O)[C@H](C)/C=C(\C)[C@@H](O)[C@@H](OC)C(=O)[C@H](C)C[C@H](C)/C=C/C=C/C=C/1C (stereo partly shown) [Compound 320] | < 1000 | < 0.316 | 
COC1CC2CCC(C)C(O)(O2)C(=O)C(=O)N2CCCCC2C(=O)OC(C(C)CC2CCC(OCCCN3CCOC(C)C3)C(OC)C2)CC(=O)C(C)C=C(C)C(O)C(OC)C(=O)C(C)CC(C)C=CC=CC=C1C (stereo not shown) [Compound 310] | < 1000 | < 0.316 | 
COCCOC1CC2CCC(C)C(O)(O2)C(=O)C(=O)N2CCCCC2C(=O)OC(C(C)CC2CCC(OCCO)C(OC)C2)CC(=O)C(C)C=C(C)C(O)C(OC)C(=O)C(C)CC(C)C=CC=CC=C1C (stereo not shown) [Compound 40] |  |  | pIC50 mTORC2 (mTORC2; [1]): B (5 to 6 as B); pIC50 mTORC1 (mTORC1; [2]): A (pIC50 for mTORC1 of >9.5 as A)
COCCOC1C[C@@H]2CC[C@@H](C)[C@@](O)(O2)C(=O)C(=O)N2CCCC[C@H]2C(=O)O[C@H]([C@H](C)C[C@@H]2CC[C@@H](OCCCN3CCN(C(C)C)CC3)[C@H](OC)C2)CC(=O)[C@H](C)/C=C(\C)[C@@H](O)[C@@H](OC)C(=O)[C@H](C)C[C@H](C)/C=C/C=C/C=C/1C (mixture of isomers) [Compound 39] |  |  | IC50 (mTORC2; [1]): 1000 to 10000 nM; IC50 (mTORC1; [2]): < 0.316 nM
CO[C@@H]1C[C@H](C[C@@H](C)[C@@H]2CC(=O)[C@H](C)/C=C(\C)[C@@H](O)[C@@H](OC)C(=O)[C@H](C)C[C@H](C)/C=C/C=C/C=C(\C)C(OCCO)C[C@@H]3CC[C@@H](C)[C@@](O)(O3)C(=O)C(=O)N3CCCCC3C(=O)O2)CC[C@H]1OCCCN1C[C@@H](C)O[C@@H](C)C1 (stereo partly shown) [Compound 18] |  |  | pIC50 mTORC2 (mTORC2; [1]): A (PIC50 for mTORC2 of <5 as A); pIC50 mTORC1 (mTORC1; [2]): A (pIC50 for mTORC1 of >9.5 as A)
CO[C@@H]1C[C@H](C[C@@H](C)[C@@H]2CC(=O)[C@H](C)/C=C(\C)[C@@H](O)[C@@H](OC)C(=O)[C@H](C)C[C@H](C)/C=C/C=C/C=C(\C)C(OCCO)C[C@@H]3CC[C@@H](C)[C@@](O)(O3)C(=O)C(=O)N3CCCC[C@H]3C(=O)O2)CC[C@H]1OCCCN1CCO[C@H](C)C1 (mixture of isomers) [Compound 13] |  |  | IC50 (mTORC1; [2]): < 0.316 nM

The next lines start with results.

IC50 (mTORC2) [nM] | IC50 (mTORC1) [nM] | Compound | also measured
< 1000 | < 0.316 | COC1C[C@@H]2CC[C@@H](C)[C@@](O)(O2)C(=O)C(=O)N2CCCCC2C(=O)O[C@H]([C@H](C)C[C@@H]2CC[C@@H](OC(=O)NCc3ccccn3)[C@H](OC)C2)CC(=O)[C@H](C)/C=C(\C)[C@@H](O)[C@@H](OC)C(=O)[C@H](C)C[C@H](C)/C=C/C=C/C=C/1C (stereo partly shown) [Compound 333] | 
< 1000 | < 0.316 | COC1C[C@@H]2CC[C@@H](C)[C@@](O)(O2)C(=O)C(=O)N2CCCCC2C(=O)O[C@H]([C@H](C)C[C@@H]2CC[C@@H](OC(=O)N(CCO)CCO)[C@H](OC)C2)CC(=O)[C@H](C)/C=C(\C)[C@@H](O)[C@@H](OC)C(=O)[C@H](C)C[C@H](C)/C=C/C=C/C=C/1C (stereo partly drawn) [Compound 357, [(1R,2R,4S)-4-[(2R)-2-[(1R,9S,12S,15R,16E,18R,19R,21R,23S,24E,26E,28E,30S,32S,35R)-1,18-dihydroxy-19,30-dimethoxy-15,17,21,23,29,35-hexamethyl-2,3,10,14,20-pentaoxo-11,36-dioxa-4-azatricyclo[30.3.1.0^4,9]hexatriaconta-16,24,26,28-tetraen-12-yl]propyl]-2-methoxy-cyclohexyl] N,N-bis(2-hydroxyethyl)carbamate] | 
1000 to 10000 | 0.316 to 3.16 | CO[C@H](COC1C[C@@H]2CC[C@@H](C)[C@@](O)(O2)C(=O)C(=O)N2CCCCC2C(=O)O[C@H]([C@H](C)C[C@@H]2CC[C@@H](O)[C@H](OC)C2)CC(=O)[C@H](C)/C=C(\C)[C@@H](O)[C@@H](OC)C(=O)[C@H](C)C[C@H](C)/C=C/C=C/C=C/1C)c1ccccc1 (stereo partly shown) [Compound 206] | 
1000 to 10000 | < 0.316 | COCCOC1C[C@@H]2CC[C@@H](C)[C@@](O)(O2)C(=O)C(=O)N2CCCCC2C(=O)O[C@H]([C@H](C)C[C@@H]2CC[C@@H](O)[C@H](OC)C2)CC(=O)[C@H](C)/C=C(\C)[C@@H](O)[C@@H](OC)C(=O)[C@H](C)C[C@H](C)/C=C/C=C/C=C/1C (stereo partly shown) [Compound 220] | 
< 1000 | < 0.316 | COC1C[C@@H]2CC[C@@H](C)[C@@](O)(O2)C(=O)C(=O)N2CCCCC2C(=O)O[C@H]([C@H](C)C[C@@H]2CC[C@@H](OC(=O)N(C)CCCO)[C@H](OC)C2)CC(=O)[C@H](C)/C=C(\C)[C@@H](O)[C@@H](OC)C(=O)[C@H](C)C[C@H](C)/C=C/C=C/C=C/1C (stereo partly shown) [Compound 338] | 
1000 to 10000 | 0.316 to 3.16 | CO[C@@H]1C[C@H](C[C@@H](C)[C@@H]2CC(=O)[C@H](C)/C=C(\C)[C@@H](O)[C@@H](OC)C(=O)[C@H](C)C[C@H](C)/C=C/C=C/C=C(\C)C(OCCCc3ccccc3)C[C@@H]3CC[C@@H](C)[C@@](O)(O3)C(=O)C(=O)N3CCCCC3C(=O)O2)CC[C@H]1O (stereo partly shown) [Compound 207] | 
< 1000 | < 0.316 | COC1C[C@@H]2CC[C@@H](C)[C@@](O)(O2)C(=O)C(=O)N2CCCCC2C(=O)O[C@H]([C@H](C)C[C@@H]2CC[C@@H](OC(=O)NCCN3CCCCC3)[C@H](OC)C2)CC(=O)[C@H](C)/C=C(\C)[C@@H](O)[C@@H](OC)C(=O)[C@H](C)C[C@H](C)/C=C/C=C/C=C/1C (stereo partly shown) [Compound 365] | 
